The source of these data is ChEMBL document CHEMBL2429839, “Synthesis and characterization of 2-(4-((1-alkyl or aryl-1H-1,2,3-triazol-4-yl)methoxy)phenyl)naphtho[1,2-d]oxazoles for protein tyrosine phosphatase 1B inhibitory activity” (Med Chem Res, 2013).

Assay [1] has as its target Tyrosine-protein phosphatase non-receptor type 1 (Rattus norvegicus) (UniProt P20417). In words: (§1) Inhibition of PTP1B in rat liver homogenates using p-nitro phenyl phosphate as substrate at 10 uM preincubated for 30 mins followed by substrate addition measured after 10 mins relative to control. The assay is classed as tissue-based.
Assay [2] deals with A549. In words: Cytotoxicity against human A549 cells after 24 hrs by MTT assay. The assay is classed as cell-based. Particulars: A549, 24 h. In general terms: Tetrazolium dyes change colour on reduction, which living cells bring about.
Assay [3] addresses T1, Tyrosine-protein phosphatase non-receptor type 1 (Rattus norvegicus) (UniProt P20417).
T1 sequence (whole entry): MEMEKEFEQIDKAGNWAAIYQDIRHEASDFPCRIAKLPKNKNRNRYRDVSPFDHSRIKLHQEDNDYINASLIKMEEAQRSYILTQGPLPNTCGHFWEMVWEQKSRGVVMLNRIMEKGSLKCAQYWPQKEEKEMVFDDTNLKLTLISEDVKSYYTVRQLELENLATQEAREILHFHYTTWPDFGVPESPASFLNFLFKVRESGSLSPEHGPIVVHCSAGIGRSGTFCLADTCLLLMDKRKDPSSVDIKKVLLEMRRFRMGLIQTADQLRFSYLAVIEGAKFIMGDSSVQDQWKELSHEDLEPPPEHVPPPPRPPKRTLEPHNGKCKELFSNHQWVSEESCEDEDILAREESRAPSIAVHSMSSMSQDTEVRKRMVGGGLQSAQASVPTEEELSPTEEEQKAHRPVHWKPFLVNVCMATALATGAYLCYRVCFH
The assay is described as §1. Format: tissue-based. This is another data set of the same source.

For assay [4], the system named is Rattus norvegicus. The assay can be described thus: Antidiabetic activity in Sprague-Dawley albino rat assessed as inhibition of blood glucose level at 50 mg/kg, ip administered 10 mins prior to oral glucose challenge measured after 10 mins by glucometer relative to control. Format: functional.
Assay [5] relates to HEK293. In words: Cytotoxicity against HEK293 cells after 24 hrs by MTT assay. The assay is classed as cell-based. The following applies: Homo sapiens, HEK293, 24 h.
Assay [6] addresses T2, Tyrosine-protein phosphatase non-receptor type 1 (Rattus norvegicus, UniProt P20417).
T2 sequence (P20417 whole entry): T1 sequence (whole entry)
The assay can be described thus: (§2) Inhibition of PTP1B in rat liver homogenates using p-nitro phenyl phosphate as substrate preincubated for 30 mins followed by substrate addition measured after 10 mins. The assay is classed as tissue-based.

The target in assay [7] is T1, Tyrosine-protein phosphatase non-receptor type 1 (Rattus norvegicus). Described as §2. Format: tissue-based.
The subject of assay [8] is Rattus norvegicus. The assay can be described thus: Antidiabetic activity in Sprague-Dawley albino rat assessed as inhibition of blood glucose level at 300 mg/kg, ip administered 10 mins prior to oral glucose challenge measured after 10 mins by glucometer relative to control. Format: functional.

For orientation: inhibition means the share of the control response that was lost under treatment. In assay [1], SODIUM ORTHOVANAD registered an inhibition of 60.7%.

In general, IC50 refers to the point on the concentration scale where inhibition reaches its midpoint. Higher therefore signals weaker potency. For orientation: inhibition in vivo means the share of the control response that was lost under treatment. `Cc1ccc(-n2cc(COc3ccc(-c4nc5c(ccc6ccccc65)o4)cc3)nn2)cc1`: the results for the IC50 in assay [2], in assay [5] and in assay [6] were above 1000 µM, above 1000 µM and 20.4 µM, respectively. In addition, the inhibition in assay [3] is 41.6%; in assay [7], “Dose-dependent effect”. For the same molecule, in assay [4], the inhibition in vivo at 50 mg/kg worked out at 62.6%.

Regarding `CN(C)C(=N)NC(=N)N` [METFORMIN], the inhibition in vivo at 300 mg/kg in assay [8] came out at 57.1%.

Take `COc1cccc2c1C(=O)c1c(O)c3c(c(O)c1C2=O)C[C@@](O)(C(=O)CO)C[C@@H]3O[C@H]1C[C@H](N)[C@H](O)[C@H](C)O1` [DOXORUBICIN]: the IC50 in assay [2] was found to be 3.98 µM; in assay [5], 1.01 µM.

For the molecule `FC(F)(F)c1ccc(-n2cc(COc3ccc(-c4nc5c(ccc6ccccc65)o4)cc3)nn2)cc1`, the figures for the IC50 in assay [2], in assay [5] and in assay [6] were above 1000 µM, above 1000 µM and 8.61 µM, respectively. In addition, the inhibition is 68.3% in assay [3] and “Dose-dependent effect” in assay [7]. Further, the inhibition in vivo at 50 mg/kg in assay [4] came out at 78.6%.
